The results in this text go back to US12540131B2 (Merck Sharp & Dohme LLC, priority 2019, dated 2026).

Sequence of GST tagged truncated human mutant G2019S LRRK2 (Q5S007 970-2527 G2019S): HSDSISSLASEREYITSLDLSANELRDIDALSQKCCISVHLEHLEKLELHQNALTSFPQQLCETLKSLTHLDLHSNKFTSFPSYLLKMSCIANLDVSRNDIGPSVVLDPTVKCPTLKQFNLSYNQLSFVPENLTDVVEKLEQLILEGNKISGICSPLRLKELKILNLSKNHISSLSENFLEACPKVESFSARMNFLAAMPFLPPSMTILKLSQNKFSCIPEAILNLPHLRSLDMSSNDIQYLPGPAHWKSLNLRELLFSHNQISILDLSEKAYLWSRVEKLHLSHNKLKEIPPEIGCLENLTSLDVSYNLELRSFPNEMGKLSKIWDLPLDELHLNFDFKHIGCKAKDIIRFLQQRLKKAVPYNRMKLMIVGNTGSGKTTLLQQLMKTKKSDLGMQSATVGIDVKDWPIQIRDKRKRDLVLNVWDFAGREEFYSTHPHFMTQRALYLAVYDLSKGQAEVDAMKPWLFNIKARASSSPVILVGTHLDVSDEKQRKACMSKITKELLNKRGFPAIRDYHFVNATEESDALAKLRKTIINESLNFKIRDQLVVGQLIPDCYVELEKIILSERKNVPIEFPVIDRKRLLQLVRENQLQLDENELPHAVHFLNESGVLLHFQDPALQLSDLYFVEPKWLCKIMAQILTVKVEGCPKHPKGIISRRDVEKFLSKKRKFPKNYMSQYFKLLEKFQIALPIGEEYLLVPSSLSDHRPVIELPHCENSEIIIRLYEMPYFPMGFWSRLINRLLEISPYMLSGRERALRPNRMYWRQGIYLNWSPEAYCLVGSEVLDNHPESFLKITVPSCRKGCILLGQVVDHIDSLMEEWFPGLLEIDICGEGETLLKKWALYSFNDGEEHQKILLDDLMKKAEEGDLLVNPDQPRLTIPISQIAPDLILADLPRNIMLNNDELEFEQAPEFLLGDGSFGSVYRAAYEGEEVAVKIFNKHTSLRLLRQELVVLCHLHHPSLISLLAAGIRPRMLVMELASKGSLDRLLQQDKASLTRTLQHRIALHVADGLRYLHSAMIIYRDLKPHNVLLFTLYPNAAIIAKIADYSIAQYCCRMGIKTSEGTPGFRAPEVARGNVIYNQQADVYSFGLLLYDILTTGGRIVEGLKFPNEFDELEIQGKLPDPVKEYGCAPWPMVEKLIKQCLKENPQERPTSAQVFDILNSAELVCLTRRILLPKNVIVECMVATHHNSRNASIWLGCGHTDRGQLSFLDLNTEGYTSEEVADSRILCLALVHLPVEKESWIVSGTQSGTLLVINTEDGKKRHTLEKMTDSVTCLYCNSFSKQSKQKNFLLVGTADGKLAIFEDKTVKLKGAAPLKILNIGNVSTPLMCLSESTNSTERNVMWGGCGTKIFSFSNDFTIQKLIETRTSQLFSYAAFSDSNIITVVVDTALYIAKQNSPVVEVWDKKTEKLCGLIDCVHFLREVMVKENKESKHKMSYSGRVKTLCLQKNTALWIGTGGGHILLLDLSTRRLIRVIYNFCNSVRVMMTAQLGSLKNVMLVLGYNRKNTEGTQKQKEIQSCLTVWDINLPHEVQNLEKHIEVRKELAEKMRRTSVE

In the first assay the target is GST tagged truncated human mutant G2019S LRRK2 (Homo sapiens (Human), UniProt Q5S007, G2019S). As to the kind of experiment: LRRK2 Km ATP LanthaScreen Assay. The format is biochemical. The conditions noted are these: G2019S LRRK2, 134 μM ATP (Km ATP), mean values. In outline:
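Enzyme (GST-tagged, truncated) was preincubated with compound for 15 min at RT in 50 mM Tris pH 8.5, 10 mM MgCl2, 0.01% Brij-35, 1 mM EGTA, 2 mM DTT and 0.05 mM orthovanadate. Fluorescein-LRRKtide and 134 μM ATP (Km) were then added for 90 min. EDTA and Tb-anti-pERM antibody stopped the reaction; the TR-FRET 520/495 ratio gave 4-parameter IC50s, reported as mean pIC50.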
Background: Time-resolved FRET reads energy transfer from a long-lived donor to a nearby acceptor.
For the compound `N#CC1CCC(N2CC[C@@H](c3cc4nc(Nc5cnn(C6CC6)c5Cl)ncc4cc3Cl)[C@H](F)C2)C1` (single isomer, unassigned) [Ex-4.108, (1R,3S)-3-((3S,4S) or (1S,3R)-3-((3S,4S) or (1R,3R)-3-((3S,4S) or (1S,3S)-3-((3S,4S) or (1R,3S)-3-((3R,4R) or (1S,3R)-3-((3R,4R) or (1R,3R)-3-((3R,4R) or 1S,3S)-3-((3R,4R) 4-(6-chloro-2-((5-chloro-1-cyclopropyl-1H-pyrazol-4-yl)amino)quinazolin-7-yl)-3-fluoropiperidin-1-yl)cyclopentane-1-carbonitrile], the “LRRK2 pIC50” value is 8.49. The same measure, in the same setting: under `N#CC1CCC(N2CC[C@@H](c3cc4nc(Nc5cnn(C6CC6)c5Cl)ncc4cc3Cl)[C@H](F)C2)C1` (single isomer, unassigned) [Ex-4.109, (1R,3S)-3-((3S,4S) or (1S,3R)-3-((3S,4S) or (1R,3R)-3-((3S,4S) or (1S,3S)-3-((3S,4S) or (1R,3S)-3-((3R,4R) or (1S,3R)-3-((3R,4R) or (1R,3R)-3-((3R,4R) or 1S,3S)-3-((3R,4R) 4-(6-chloro-2-((5-chloro-1-cyclopropyl-1H-pyrazol-4-yl)amino)quinazolin-7-yl)-3-fluoropiperidin-1-yl)cyclopentane-1-carbonitrile] stands 7.99.

Regarding `N#CC1CCC(N2CC[C@@H](c3cc4nc(Nc5cnn(C6CC6)c5Cl)ncc4cc3Cl)[C@H](F)C2)C1` (single isomer, unassigned) [Ex-4.110, (1R,3S)-3-((3S,4S) or (1S,3R)-3-((3S,4S) or (1R,3R)-3-((3S,4S) or (1S,3S)-3-((3S,4S) or (1R,3S)-3-((3R,4R) or (1S,3R)-3-((3R,4R) or (1R,3R)-3-((3R,4R) or 1S,3S)-3-((3R,4R) 4-(6-chloro-2-((5-chloro-1-cyclopropyl-1H-pyrazol-4-yl)amino)quinazolin-7-yl)-3-fluoropiperidin-1-yl)cyclopentane-1-carbonitrile], the “LRRK2 pIC50” value was found to be 8.73. On to `N#CC1CCC(N2CC[C@@H](c3cc4nc(Nc5cnn(C6CC6)c5Cl)ncc4cc3Cl)[C@H](F)C2)C1` (single isomer, unassigned) [Ex-4.111, (1R,3S)-3-((3S,4S) or (1S,3R)-3-((3S,4S) or (1R,3R)-3-((3S,4S) or (1S,3S)-3-((3S,4S) or (1R,3S)-3-((3R,4R) or (1S,3R)-3-((3R,4R) or (1R,3R)-3-((3R,4R) or 1S,3S)-3-((3R,4R) 4-(6-chloro-2-((5-chloro-1-cyclopropyl-1H-pyrazol-4-yl)amino)quinazolin-7-yl)-3-fluoropiperidin-1-yl)cyclopentane-1-carbonitrile], for which the “LRRK2 pIC50” value is 8.55. For the compound `Cc1nsc(Nc2ncc3cc(Cl)c([C@@H]4CCN(C5COC[C@@H]5O)C[C@H]4F)cc3n2)c1Cl` (single isomer, unassigned) [Ex-4.120, (3S,4S)(3S,4S) or (3S,4S)(3R,4R) or (3R,4R)(3S,4S) or (3R,4R)(3R,4R) 4-{6-chloro-2-[(4-chloro-3-methyl-1,2-thiazol-5-yl)amino]quinazolin-7-yl}-3-fluoropiperidin-1-yl]oxolan-3-ol], the “LRRK2 pIC50” value stood at 7.65.

Consider `Cc1nsc(Nc2ncc3cc(Cl)c([C@@H]4CCN(C5COC[C@H]5O)C[C@H]4F)cc3n2)c1Cl` (single isomer, unassigned) [Ex-4.121, (3S,4S)(3S,4S) or (3S,4S)(3R,4R) or (3R,4R)(3S,4S) or (3R,4R)(3R,4R) 4-{6-chloro-2-[(4-chloro-3-methyl-1,2-thiazol-5-yl)amino]quinazolin-7-yl}-3-fluoropiperidin-1-yl]oxolan-3-ol], for which the “LRRK2 pIC50” value is listed as 8.92. Same read-out and setting: for `O[C@H]1COCC1N1CC[C@@H](c2cc3nc(Nc4cnn(C5CC5)c4Cl)ncc3cc2Cl)[C@H](F)C1` (single isomer, unassigned) [Ex-4.122, (3S,4S)(3S,4S) or (3S,4S)(3R,4R) or (3R,4R)(3S,4S) or (3R,4R)(3R,4R) 4-{6-chloro-2-[(5-chloro-1-cyclopropyl-1H-pyrazol-4-yl)amino]quinazolin-7-yl}-3-fluoropiperidin-1-yl]oxolan-3-ol] the value was more than 9.20; for `O[C@@H]1COCC1N1CC[C@@H](c2cc3nc(Nc4cnn(C5CC5)c4Cl)ncc3cc2Cl)[C@H](F)C1` (single isomer, unassigned) [Ex-4.123, (3S,4S)(3S,4S) or (3S,4S)(3R,4R) or (3R,4R)(3S,4S) or (3R,4R)(3R,4R) 4-{6-chloro-2-[(5-chloro-1-cyclopropyl-1H-pyrazol-4-yl)amino]quinazolin-7-yl}-3-fluoropiperidin-1-yl]oxolan-3-ol], 8.37.

As to `O=S1(=O)CC(N2CC[C@@H](c3cc4nc(Nc5cnn(C6CC6(F)F)c5Cl)ncc4cc3Cl)[C@H](F)C2)C1` (single isomer, unassigned) [Ex-4.124, (S)(3S,4S) or (S)(3R,4R) or (R)(3S,4S) or (R)(3R,4R) 3-[4-(6-chloro-2-{[5-chloro-1-(2,2-difluorocyclopropyl)-1H-pyrazol-4-yl]amino}quinazolin-7-yl)-3-fluoropiperidin-1-yl]thietane 1,1-dioxide], the “LRRK2 pIC50” value was 8.91. Same read-out and setting: under `O[C@@H]1COCC1N1CC[C@H](c2cc3nc(Nc4cnn(C5CC5(F)F)c4Cl)ncc3cc2Cl)[C@@H](F)C1` (single isomer, unassigned) [Ex-4.125, (R)(3S,4S)(3S,4S) or (R)(3S,4S)(3R,4R) or (R)(3R,4R)(3S,4S) or (R)(3R,4R)(3R,4R) or (S)(3S,4S)(3S,4S) or (S)(3S,4S)(3R,4R) or (S)(3R,4R)(3S,4S) or (S)(3R,4R)(3R,4R) 4-(6-chloro-2-{[5-chloro-1-(2,2-difluorocyclopropyl)-1H-pyrazol-4-yl]amino}quinazolin-7-yl)-3-fluoropiperidin-1-yl]oxolan-3-ol] stands 8.16; under `Cc1c(Nc2ncc3cc(Cl)c(C4C[C@H]5C[C@@H]4CN5C4COC4)cc3n2)cnn1C1CC1` (single isomer, unassigned) [Ex-4.126, (1S,4S) or (1R,4R) 6-chloro-N-(1-cyclopropyl-5-methyl-1H-pyrazol-4-yl)-7-[2-(oxetan-3-yl)-2-azabicyclo[2.2.1]heptan-5-yl]quinazolin-2-amine], 7.64; under `Cc1c(Nc2ncc3cc(Cl)c([C@@H]4CCN(C5COC[C@@H]5O)C[C@H]4F)cc3n2)cnn1C1CC1` (single isomer, unassigned) [Ex-4.127, (3S,4S)(3S,4S) or (3S,4S)(3R,4R) or (3R,4R)(3S,4S) or (3R,4R)(3R,4R) 4-[4-{6-chloro-2-[(1-cyclopropyl-5-methyl-1H-pyrazol-4-yl)amino]quinazolin-7-yl}-3-fluoropiperidin-1-yl]oxolan-3-ol], more than 9.20. On the same count and under the same terms, for `Cc1c(Nc2ncc3cc(Cl)c([C@@H]4CCN(C5COC[C@H]5O)C[C@H]4F)cc3n2)cnn1C1CC1` (single isomer, unassigned) [Ex-4.128, (3S,4S)(3S,4S) or (3S,4S)(3R,4R) or (3R,4R)(3S,4S) or (3R,4R)(3R,4R) 4-[4-{6-chloro-2-[(1-cyclopropyl-5-methyl-1H-pyrazol-4-yl)amino]quinazolin-7-yl}-3-fluoropiperidin-1-yl]oxolan-3-ol] the value was 8.99; for `Cc1c(Nc2ncc3cc(Cl)c(C4CCN(C5COC[C@H]5O)[C@@H](C)C4)cc3n2)cnn1C1CC1` (single isomer, unassigned) [Ex-4.129, (3S,4S)(2S,4R) or (3S,4S)(2S,4S) or (3R,4R)(2S,4R) or (3R,4R)(2S,4S) (3 4-[4-{6-chloro-2-[(1-cyclopropyl-5-methyl-1H-pyrazol-4-yl)amino]quinazolin-7-yl}-2-methylpiperidin-1-yl]oxolan-3-ol], more than 9.20; for `Cc1c(Nc2ncc3cc(Cl)c(C4CCN(C5COC[C@@H]5O)[C@@H](C)C4)cc3n2)cnn1C1CC1` (single isomer, unassigned) [Ex-4.130, (3S,4S)(2S,4R) or (3S,4S)(2S,4S) or (3R,4R)(2S,4R) or (3R,4R)(2S,4S) (3 4-[4-{6-chloro-2-[(1-cyclopropyl-5-methyl-1H-pyrazol-4-yl)amino]quinazolin-7-yl}-2-methylpiperidin-1-yl]oxolan-3-ol], 8.97.

The same assay, now with this note: G2019S LRRK2, 134 μM ATP (Km ATP), mean values; read-out: LRRK2 pIC50 (converted).
Consider `Clc1cc2cnc(Nc3cnn(C4CC4)c3Cl)nc2cc1C1CCN(C2COC3(CCC3)C2)CC1` (single isomer, unassigned) [Ex-4.114, (R) or (S) 7-(1-(5-oxaspiro[3.4]octan-7-yl)piperidin-4-yl)-6-chloro-N-(5-chloro-1-cyclopropyl-1H-pyrazol-4-yl)quinazolin-2-amine], for which the IC50 was 10 nM. Same read-out and setting: for `Clc1cc2cnc(Nc3cnn(C4CC4)c3Cl)nc2cc1C1CCN(C2COC3(CCC3)C2)CC1` (single isomer, unassigned) [Ex-4.115, (R) or (S) 7-(1-(5-oxaspiro[3.4]octan-7-yl)piperidin-4-yl)-6-chloro-N-(5-chloro-1-cyclopropyl-1H-pyrazol-4-yl)quinazolin-2-amine] the value was 0.851 nM; for `CC1(C)CC(N2CCC(c3cc4nc(Nc5cnn(C6CC6)c5Cl)ncc4cc3Cl)CC2)CO1` (single isomer, unassigned) [Ex-4.116, (R) or (S) 6-chloro-N-(5-chloro-1-cyclopropyl-1H-pyrazol-4-yl)-7-(1-(5,5-dimethyltetrahydrofuran-3-yl)piperidin-4-yl)quinazolin-2-amine], 4.47 nM; for `CC1(C)CC(N2CCC(c3cc4nc(Nc5cnn(C6CC6)c5Cl)ncc4cc3Cl)CC2)CO1` (single isomer, unassigned) [Ex-4.117, (R) or (S) 6-chloro-N-(5-chloro-1-cyclopropyl-1H-pyrazol-4-yl)-7-(1-(5,5-dimethyltetrahydrofuran-3-yl)piperidin-4-yl)quinazolin-2-amine], less than 0.631 nM.
